Measured values published in US9079876B2, “Imidazole derivatives and preparation method and use thereof” (Beijing Orbiepharm Co., Ltd., priority 2010, dated 2015).
Values belong to the compound of their own block, whether it stands above or below them.

Experiments:
[1] = biological target: T1, cyclooxygenase-2 (COX-2 enzyme) (Homo sapiens, UniProt P35354); experiment: Human whole blood in vitro activity assay, COX-2 (LPS-induced PGE2 by EIA); format: cell-based; conditions: for IC50: LPS, PGE2, read-out: IC50 (μg/mL) COX-2 (converted)
T1 construct: from tissue; host or cells: heparinised human whole blood from healthy volunteers, stimulated with LPS
T1 sequence (P35354 18-604): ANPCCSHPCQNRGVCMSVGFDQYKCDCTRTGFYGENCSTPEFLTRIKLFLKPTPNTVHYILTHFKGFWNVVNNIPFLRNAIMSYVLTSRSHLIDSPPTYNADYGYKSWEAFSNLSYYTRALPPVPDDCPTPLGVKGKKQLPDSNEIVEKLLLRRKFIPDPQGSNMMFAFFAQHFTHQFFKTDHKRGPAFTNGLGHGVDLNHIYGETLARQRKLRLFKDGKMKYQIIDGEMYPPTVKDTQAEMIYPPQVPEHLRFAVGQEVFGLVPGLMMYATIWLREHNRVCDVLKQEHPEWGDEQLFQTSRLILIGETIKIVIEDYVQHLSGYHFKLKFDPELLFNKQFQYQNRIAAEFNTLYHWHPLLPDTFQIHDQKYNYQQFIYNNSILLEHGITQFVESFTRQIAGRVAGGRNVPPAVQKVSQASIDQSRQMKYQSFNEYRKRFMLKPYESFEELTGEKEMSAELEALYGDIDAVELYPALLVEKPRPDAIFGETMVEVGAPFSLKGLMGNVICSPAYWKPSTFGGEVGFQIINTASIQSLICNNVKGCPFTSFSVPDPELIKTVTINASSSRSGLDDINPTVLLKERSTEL
Procedure: (§1) Human whole blood in vitro activity study: inhibition of activity of cyclooxygenase-1 (COX-1 enzyme) and cyclooxygenase-2 (COX-2 enzyme) in human blood. […] The blood samples were divided into two parts: one was used for detecting COX-1 enzyme activity, and the other was used for detecting COX-2 enzyme activity. The compounds were dissolved in DMSO, and were prepared in advance into 2 μL solutions in respective concentrations of 500, 50, 5, 0.5, 0.05, 0.005, 0.0005 μg/mL. 200 μL whole blood without heparin was added in the tubes containing the compounds, and then incubated at 37° C. for 1 hour. The activity of COX-1 enzyme was detected by determining the amount of thromboxane B2 (TXB2) synthesized by platelet using an EIA kit. Samples tested without the compounds were negative controls. For COX-2, 200 μL whole blood with heparin was added in the tubes containing the compounds and in the tubes containing 10 μg/mL LPS. LPS control and blank control with solvent only were used respectively for determining the maximum value and the background value of the PGE2 produced therefrom. The samples were incubated at 37° C. for 24 hours, and then centrifuged to collect serum/plasma, which was stored at −80° C. for detection by an EIA kit. The EIA kit of Cayman Company was used, the amounts of TXB2 and PGE2 were determined in accordance to the manufacturer's instructions, and the activities of COX-1 and COX-2 were tested respectively.

[2] = biological target: T2, cyclooxygenase-1 (COX-1 enzyme) (Homo sapiens, UniProt P23219); experiment: Human whole blood in vitro activity assay, COX-1 (TXB2 by EIA); format: cell-based; conditions: read-out: IC50 (μg/mL) COX-1 (converted)
T2 construct: from tissue; host or cells: human whole blood without heparin (platelets) from healthy volunteers
Procedure: as §1

[3] = system: rat paw swelling induced by carrageenan; experiment: Rat paw swelling induced by carrageenan (inflammation model); format: in vivo, Wistar rats; conditions: 14 mg/kg intragastric
Procedure: In vivo test: observation of the effect of compound 1 on rat paw swelling induced by carrageenan (inflammation model evaluation)
50 rats were randomized into 5 groups, with 10 animals in each group.
The total volume prepared for each dose group was determined based on the actual weight of the animals. A corresponding volume of purified water was taken, and was added with a sample of the test compounds or of the positive control, to allow homogenous dispersion. Sodium carboxymethyl cellulose was subsequently added, to make a homogenous suspension without obvious agglomerates.
Methods: 50 Wistar rats ([…], 167-199 g) were used in the study, with 25 males and 25 females. They were randomized into 5 groups, i.e. model group, positive control group, compound 1: low, middle and high dose groups. […] 1 hour after intragastric administration, 0.1 ml 1% carrageenan was intradermally injected in the right hind plantar paw to induce inflammation. After induction of inflammation, paw plantar volume and paw thickness were measured every another hour, consecutively for six times. Paw swelling rate (%) and inhibition rate (%) were calculated.
Assay methods: volume of the rat right paw was determined using UGO Basile plethysmograph, and the liquid level was kept constant for in the same animal in each measurement; thickness of the right hind paw were measured at the depiction line in the central paw with a digital vernier caliper.
The group mean and standard deviation of paw swelling rate in each group of animals were calculated, and then the following statistical analysis was performed. The test level was 0.05, and both statistical significance and biological significance were considered in the result analysis.
Levene's Test was used for homogeneity of variance test. Single-factor analysis of variance (ANOVA) was used for statistical analysis, if no statistical significance (P>0.05) was found. Dunnett's test (parametric method) analysis was used for multiple comparison analysis, if ANOVA found statistical significance (P≦0.05).
If there was heterogeneity of variance (P≦0.05), then the Kruskal-Wallis test was used. If the test result of Kruskal-Wallis test was statistically significant (P<0.05), then Dunnett's test (non-parametric method) was used for multiple comparison analysis.

[4] = system: mice forced swimming immobility time; experiment: Forced swimming test in mice (anti-depression model); format: in vivo, Male Kunming mice; conditions: 20 mg/kg intragastric, in s (unit assumed)
Procedure: In Vivo Study: The Forced Swimming Test in Mice (Evaluation on Anti-Depression Model)
Male Kunming mice, approximately 20 g, were randomized into six groups, i.e. normal group, positive drug group (fluoxetine 20 mg/kg), group A (5 mg/kg Compound 1), group B (10 mg/kg Compound 1), group C (20 mg/kg Compound 1), and group D (40 mg/kg Compound 1).
Single Dose Test: Mice were normally fed for 1 day and allowed to adapt to the environment. Then the mice were fasted (except water) for 16 hours, and were intragastrically administrated with a single dose of the test drug, and the normal group was intragastrically administrated with an equivalent amount of distilled water. 40 min after administration, the mice were placed in forced swimming test device (swimming environment: pool diameter 12.5 cm cylinder, water temperature 25° C. and water depth 10 cm). Mice swam for six minutes, and the immobility time (i.e., the time during which the limbs were immobile, or only the feet were thrashing or paddling) was recorded with an animal behavioral record system, for the latter 4 min within the 6 min recording period, and was used for statistical analysis.
(§2) Study with Three-Day Consecutive Dosing: Mice were normally fed for 1 day and allowed to adapt to the environment. Then the mice were intragastrically administrated with the test drug consecutively for three days (once per day). The normal group was intragastrically administrated equivalent amount of distilled water. Mice were fasted (except water) for 16 hours before the last dosing. 40 min after the last dosing, the mice were placed in forced swimming test device (swimming environment: pool diameter 12.5 cm cylinder, water temperature 25° C. and water depth 10 cm). Mice swam for six minutes, and the immobility time (i.e., the time during which the limbs were immobile, or only the feet were thrashing or paddling) was recorded with an animal behavioral record system, for the latter 4 min within the 6 min recording period, and was used for statistical analysis.
as §2, with “Seven-Day” for “Three-Day”, “seven” for “three”

[5] = system: mice tail suspension immobility time; experiment: Tail suspension test in mice (anti-depression model); format: in vivo, Male Kunming mice; conditions: 20 mg/kg intragastric, in s (unit assumed)
Procedure: In Vivo Test: Tail Suspension Test in Mice (Evaluation on an Anti-Depression Model)
Male Kunming mice, approximately 20 g, were randomized into six groups, i.e. normal group, positive drug group (fluoxetine 20 mg/kg), compound 1: group A 5 mg/kg, group B 10 mg/kg, group C 20 mg/kg, and group D 40 mg/kg.
Single Dose Test: Mice were normally fed for 1 day and allowed to adapt to the environment. Then the mice were fasted (except water) for 16 hours, and were intragastrically administrated with a single dose of the compound. The normal group was intragastrically administrated with an equivalent amount of distilled water. 40 min after the administration, the mice were inverted and fixed to a tail suspension device, and the distance between the head and the desktop was about 30 cm. Immobility time was recorded with an analysis record system, for the latter 4 min within the 6 min recording period, and was used for statistical analysis.
(§3) Study with Three-Day Consecutive Dosing: Mice were normally fed for 1 day and allowed to adapt to the environment. Then the mice were intragastrically administrated with the test drug for 3 consecutive days (once per day), and the normal group was intragastrically administrated with an equivalent amount of distilled water. The mice were fasted (except water) for 16 hours before the last dosing. 40 min after the last dosing, the mice were inverted and fixed to the tail suspension device, and the distance between the head and the desktop was about 30 cm. Immobility time was recorded with an analysis record system, for the latter 4 min within the 6 min recording period, and was used for statistical analysis.
as §3, with “with Seven-Day” for “with Three-Day”, “intragastrically dosed” for “intragastrically administrated with the test drug”, “for 7” for “for 3”, “days (once/day),” for “days (once per day),”, “last administration.” for “last dosing.”, “last administration,” for “last dosing,”

[6] = 3 days consecutive administration
[7] = 7 days consecutive administration
[8] = single dose, 40 min after administration

T2 sequence (P23219 24-599): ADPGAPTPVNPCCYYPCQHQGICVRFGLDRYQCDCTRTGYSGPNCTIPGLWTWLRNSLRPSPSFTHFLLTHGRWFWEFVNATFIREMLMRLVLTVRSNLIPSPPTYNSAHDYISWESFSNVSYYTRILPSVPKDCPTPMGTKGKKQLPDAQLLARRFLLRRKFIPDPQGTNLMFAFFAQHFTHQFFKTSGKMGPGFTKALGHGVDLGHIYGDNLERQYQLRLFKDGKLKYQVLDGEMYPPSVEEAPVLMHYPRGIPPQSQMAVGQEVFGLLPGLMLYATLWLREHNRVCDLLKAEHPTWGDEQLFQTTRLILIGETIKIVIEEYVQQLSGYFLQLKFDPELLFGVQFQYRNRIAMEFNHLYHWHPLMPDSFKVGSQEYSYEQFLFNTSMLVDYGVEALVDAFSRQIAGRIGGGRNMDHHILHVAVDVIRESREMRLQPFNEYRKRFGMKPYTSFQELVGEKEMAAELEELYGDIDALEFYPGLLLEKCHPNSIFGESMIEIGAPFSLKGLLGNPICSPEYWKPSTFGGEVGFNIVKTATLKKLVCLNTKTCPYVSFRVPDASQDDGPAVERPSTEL

IC50COX-1/IC50COX-2 [1]: 26.2 | IC50 [1]: 1.74 µM | IC50 [2]: 45.6 µM
Compound: CS(=O)(=O)c1ccc(-n2cnc(Cl)c2-c2ccc(Cl)cc2Cl)nc1 [Compound 4, 2-(4-chloro-5-(2,4-dichlorophenyl)-1H-imidazol-1-yl)-5-(methylsulfonyl)pyridine]

IC50 [1]: > 1670 µM | IC50 [2]: 187 µM
Compound: CS(=O)(=O)c1ccc(-n2cncc2-c2ccccc2)cn1 [Compound 8E, 2-(methylsulfonyl)-5-(5-phenyl-1H-imidazol-1-yl)pyridine]

IC50COX-1/IC50COX-2 [1]: 135.9 | IC50 [1]: 1.54 µM | IC50 [2]: 209 µM
Compound: CS(=O)(=O)c1ccc(-n2cnc(Cl)c2-c2ccc(F)cc2)cn1 [Compound 12, 5-(4-chloro-5-(4-fluorophenyl)-1H-imidazol-1-yl)-2-(methylsulfonyl)pyridine]

IC50COX-1/IC50COX-2 [1]: 4.6 | IC50 [1]: 0.137 µM | IC50 [2]: 0.632 µM
Compound: COc1ccc(-c2c(Cl)ncn2-c2ccc(S(C)(=O)=O)cn2)cc1 [Compound 5, 2-(4-chloro-5-(4-methoxyphenyl)-1H-imidazol-1-yl)-5-(methylsulfonyl)pyridine]

IC50COX-1/IC50COX-2 [1]: 19.0 | IC50 [1]: 2.84 µM | IC50 [2]: 54 µM
Compound: CS(=O)(=O)c1ccc(-n2cnc(Cl)c2-c2cccnc2)nc1 [Compound 7, 2-(4-chloro-5-(pyridin-3-yl)-1H-imidazol-1-yl)-5-(methylsulfonyl)pyridine]

Compound: Cc1ccc(-c2cc(C(F)(F)F)nn2-c2ccc(S(N)(=O)=O)cc2)cc1 [Celecoxib, reference compound]
inhibition rate of plantar paw thickness swelling ([3]; 1 h after inflammation): 30.02% | inhibition rate of plantar paw volume swelling ([3]; 1 h after inflammation): 0.26% | plantar paw thickness swelling rate ([3]; 1 h after inflammation): 7.69 ± 3.31% | plantar paw volume swelling rate ([3]; 1 h after inflammation): 10.87 ± 6.32% | inhibition rate of plantar paw thickness swelling ([3]; 2 h after inflammation): 60.28% | inhibition rate of plantar paw volume swelling ([3]; 2 h after inflammation): 38.81% | plantar paw thickness swelling rate ([3]; 2 h after inflammation): 6.30 ± 2.55 % | plantar paw volume swelling rate ([3]; 2 h after inflammation): 10.71 ± 6.01 % | inhibition rate of plantar paw thickness swelling ([3]; 3 h after inflammation): 73.09% | inhibition rate of plantar paw volume swelling ([3]; 3 h after inflammation): 66.24% | plantar paw thickness swelling rate ([3]; 3 h after inflammation): 4.64 ± 1.99 % | plantar paw volume swelling rate ([3]; 3 h after inflammation): 7.16 ± 5.15 % | inhibition rate of plantar paw thickness swelling ([3]; 4 h after inflammation): 80.52% | inhibition rate of plantar paw volume swelling ([3]; 4 h after inflammation): 64.29% | plantar paw thickness swelling rate ([3]; 4 h after inflammation): 3.71 ± 2.58 % | plantar paw volume swelling rate ([3]; 4 h after inflammation): 9.68 ± 6.13 % | inhibition rate of plantar paw thickness swelling ([3]; 5 h after inflammation): 82.31% | inhibition rate of plantar paw volume swelling ([3]; 5 h after inflammation): 56.44% | plantar paw thickness swelling rate ([3]; 5 h after inflammation): 3.34 ± 2.56 % | plantar paw volume swelling rate ([3]; 5 h after inflammation): 12.22 ± 6.90 % | inhibition rate of plantar paw thickness swelling ([3]; 6 h after inflammation): 82.40% | inhibition rate of plantar paw volume swelling ([3]; 6 h after inflammation): 57.00% | plantar paw thickness swelling rate ([3]; 6 h after inflammation): 2.72 ± 2.51 % | plantar paw volume swelling rate ([3]; 6 h after inflammation): 11.91 ± 5.41 %

IC50COX-1/IC50COX-2 [1]: >12.6 | IC50 [1]: 118 µM | IC50 [2]: > 1490 µM
Compound: CS(=O)(=O)c1ccc(-n2cnc(Cl)c2-c2cccnc2)cn1 [Compound 11, 5-(4-chloro-5-(pyridin-3-yl)-1H-imidazol-1-yl)-2-(methylsulfonyl)pyridine]

IC50COX-1/IC50COX-2 [1]: 11.6 | IC50 [1]: 7.45 µM | IC50 [2]: 86.5 µM
Compound: CS(=O)(=O)c1ccc(-n2cncc2-c2ccccc2)nc1 [Compound 1E, 5-(methylsulfonyl)-2-(5-phenyl-1H-imidazol-1-yl)pyridine]

Compound: CNCCC(Oc1ccc(C(F)(F)F)cc1)c1ccccc1 (centres unmarked) [fluoxetine, reference compound]
forced swimming Immobility time [4, 6]: 82.42 ± 32.07 | forced swimming Immobility time [4, 7]: 90.94 ± 31.73 | forced swimming Immobility time [4, 8]: 105.04 ± 37.98 | tail suspension Immobility time [5, 6]: 33.95 ± 10.50 | tail suspension Immobility time [5, 7]: 33.76 ± 10.47 | tail suspension Immobility time [5, 8]: 43.52 ± 20.21
